Measured values: patent US12318366B2, “Pharmaceutical combination and composition, and combination preparation containing glucokinase activator and biguanide hypoglycemic drug as well as preparation method and use thereof” (HUA Medicine (Shanghai) Ltd., priority 2018, dated 2025)
Counter-ions that a name gives are not always drawn.

System: patients with type II diabetes
Assay: Clinical study on the combination of HMS5552 and metformin hydrochloride: blood glucose after the meal
Assay type: in vivo, human
Settings: 13 type II diabetes patients; oral; metformin hydrochloride 500 mg (day 3), 500 mg + HMS5552 50 mg (day 8), HMS5552 50 mg (day 13); meal 30 minutes after administration
Description: 13 patients with type II diabetes were enrolled, who have been given a stable dose of metformin hydrochloride at 1000 mg/day for at least 14 days at the time of enrollment. On the 1st and 2nd day of the study, 500 mg of metformin hydrochloride was given orally daily both in the morning and in the evening; on the 3rd day, 500 mg of metformin hydrochloride was given once in the morning; on each day of the 4th to 7th day, 500 mg of metformin hydrochloride and 50 mg of HMS5552 were given daily both in the morning and in the evening; on the 8th day, 500 mg of metformin hydrochloride and 50 mg of HMS5552 were given once in the morning; on each day of 9th to 12th day, 50 mg of HMS5552 was given orally daily both in the morning and in the evening; and on the 13th day, 50 mg of HMS5552 was given once in the morning. Meals were taken 30 minutes after each administration of the test drugs.
Plasma samples were collected after administration on the 3rd, 8th and 13th day, and the blood glucose concentrations were analyzed.

| Structure (SMILES) | area under the curve for blood glucose between 0 and 4 hours after the meal (AUECO-4h) [mg·h/dL] |
| --- | --- |
| CC(C)C[C@@H](C(=O)Nc1ccn(C[C@@H](O)CO)n1)N1CC(Oc2ccccc2Cl)=CC1=O [HMS5552, (S)-2-[4-(2-chloro-phenoxy)-2-oxo-2,5-dihydro-pyrrol-1-yl]-4-methyl-pentanoic acid [1-((R)-2,3-dihydroxy-propyl)-1H-pyrazol-3-yl]-amide] | 72.96 |
| CN(C)C(=N)N=C(N)N [metformin, metformin hydrochloride] | 110.2 |
